From US10227323B2, “Glucosylceramide synthase inhibitors for the treatment of diseases” (BIOMARIN PHARMACEUTICAL INC., priority 2013, dated 2019)

Biological target: T1, GCS (Canis lupus familiaris, UniProt A0A8I3MXG6)
T1 sequence (A0A8I3MXG6 1-394): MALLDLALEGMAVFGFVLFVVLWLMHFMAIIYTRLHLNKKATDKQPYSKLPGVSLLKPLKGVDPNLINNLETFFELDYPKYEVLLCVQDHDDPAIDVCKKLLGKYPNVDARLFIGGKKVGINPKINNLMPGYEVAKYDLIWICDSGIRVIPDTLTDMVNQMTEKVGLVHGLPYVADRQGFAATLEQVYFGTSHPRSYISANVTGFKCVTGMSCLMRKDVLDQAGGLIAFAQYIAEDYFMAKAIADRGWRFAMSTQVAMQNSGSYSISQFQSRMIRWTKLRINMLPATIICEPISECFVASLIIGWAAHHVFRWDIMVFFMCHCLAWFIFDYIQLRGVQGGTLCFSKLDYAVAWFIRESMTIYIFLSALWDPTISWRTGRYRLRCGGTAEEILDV
Assay: Assay 1: GCS Enzymatic Assay (MDCK cell lysate, C6-NBD-Ceramide, LC/MS)
Assay type: biochemical, canine
Conditions: Table 2; for % inhibition generated from Assay 1: data marked by *; for IC50: data without asterisk, read-out: IC50 (nM) generated from Assay 1
Summary of the method: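 LC/MS/MS measurement of glucosylceramide and NBD-ceramide after a 1 h, 37 °C reaction with 100 μM UDP-glucose and 10 μM C6-NBD-ceramide gave IC50s or percent inhibition.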

SMILES	IC50 [nM]	% inhibition generated from Assay 1
O=C(N[C@H](CN1CCCC1)[C@H](O)c1ccc(OC2CC2)c(Cl)c1)C(=O)c1ccc(-c2ccc(F)cc2)s1 [Compound 219, N-((1R,2R)-1-(3-chloro-4-cyclopropoxyphenyl)-1-hydroxy-3-(pyrrolidin-1-yl)propan-2-yl)-2-(5-(4-fluorophenyl)thiophen-2-yl)-2-oxoacetamide]	–	A* (the compound had a % inhibition of a percent inhibition of greater than or equal to about 50%)
O=C(N[C@H](CN1CCCC1)[C@H](O)c1cc(F)c2c(c1)OCCO2)C(F)(F)c1csc(-c2ccc(F)cc2)n1 [Compound 221, 2,2-difluoro-N-((1R,2R)-1-(8-fluoro-2,3-dihydrobenzo[b][1,4]dioxin-6-yl)-1-hydroxy-3-(pyrrolidin-1-yl)propan-2-yl)-2-(2-(4-fluorophenyl)thiazol-4-yl)acetamide]	–	A* (the compound had a % inhibition of a percent inhibition of greater than or equal to about 50%)
O=C(N[C@H](CN1CCCC1)[C@H](O)c1ccc(OC2CC2)c(Cl)c1)C(F)(F)c1cnc(-c2ccc(F)cc2)s1 [Compound 222, N-((1R,2R)-1-(3-chloro-4-cyclopropoxyphenyl)-1-hydroxy-3-(pyrrolidin-1-yl)propan-2-yl)-2,2-difluoro-2-(2-(4-fluorophenyl)thiazol-5-yl)acetamide]	–	B* (the compound had a % inhibition of greater than or equal to about 3% but less than about 50%)
Cn1ncc2cc(C(=O)C(=O)N[C@H](CN3CCCC3)[C@H](O)c3ccc(OC4CC4)c(Cl)c3)ccc21 [Compound 224, N-((1R,2R)-1-(3-chloro-4-cyclopropoxyphenyl)-1-hydroxy-3-(pyrrolidin-1-yl)propan-2-yl)-2-(1-methyl-1H-indazol-5-yl)-2-oxoacetamide]	–	A* (the compound had a % inhibition of a percent inhibition of greater than or equal to about 50%)
O=C(N[C@H](CN1CCCC1)[C@H](O)c1ccc(OC2CC2)c(Cl)c1)C(=O)c1ccc2sc(Cl)cc2c1 [Compound 225, N-((1R,2R)-1-(3-chloro-4-cyclopropoxyphenyl)-1-hydroxy-3-(pyrrolidin-1-yl)propan-2-yl)-2-(2-chlorobenzo[b]thiophen-5-yl)-2-oxoacetamide]	–	B* (the compound had a % inhibition of greater than or equal to about 3% but less than about 50%)
O=C(N[C@H](CN1CCCC1)[C@H](O)c1cc(F)c2c(c1)OCCO2)C(=O)c1csc(-c2ccc(F)cc2)n1 [Compound 226, N-((1R,2R)-1-(8-fluoro-2,3-dihydrobenzo[b][1,4]dioxin-6-yl)-1-hydroxy-3-(pyrrolidin-1-yl)propan-2-yl)-2-(2-(4-fluorophenyl)thiazol-4-yl)-2-oxoacetamide]	–	B* (the compound had a % inhibition of greater than or equal to about 3% but less than about 50%)
O=C(N[C@H](CN1CCCC1)[C@H](O)c1ccc2c(c1)OCCO2)C(=O)c1csc(-c2ccc(F)cc2)n1 [Compound 229, N-((1R,2R)-1-(2,3-dihydrobenzo[b][1,4]dioxin-6-yl)-1-hydroxy-3-(pyrrolidin-1-yl)propan-2-yl)-2-(2-(4-fluorophenyl)thiazol-4-yl)-2-oxoacetamide]	–	B* (the compound had a % inhibition of greater than or equal to about 3% but less than about 50%)

More lines, main results first:

IC50 [nM]	SMILES	% inhibition generated from Assay 1
< 50	Cn1ncc2cc(-c3ccc(C(=O)C(=O)N[C@H](CN4CCCC4)[C@H](O)c4cc(F)c5c(c4)OCCO5)cc3)ccc21 [Compound 220, N-((1R,2R)-1-(8-fluoro-2,3-dihydrobenzo[b][1,4]dioxin-6-yl)-1-hydroxy-3-(pyrrolidin-1-yl)propan-2-yl)-2-(4-(1-methyl-1H-indazol-5-yl)phenyl)-2-oxoacetamide]	–
< 50	Cn1ncc2cc(-c3ccc(C(=O)C(=O)N[C@H](CN4CCC4)[C@H](O)c4cc(F)c5c(c4)OCCO5)cc3)ccc21 [Compound 223, N-((1R,2R)-3-(azetidin-1-yl)-1-(8-fluoro-2,3-dihydrobenzo[b][1,4]dioxin-6-yl)-1-hydroxypropan-2-yl)-2-(4-(1-methyl-1H-indazol-5-yl)phenyl)-2-oxoacetamide]	–
< 50	O=C(N[C@H](CN1CCC1)[C@H](O)c1cc(F)c2c(c1)OCCO2)C(=O)c1ccc(N2CCCCC2)cc1 [Compound 227, N-((1R,2R)-3-(azetidin-1-yl)-1-(8-fluoro-2,3-dihydrobenzo[b][1,4]dioxin-6-yl)-1-hydroxypropan-2-yl)-2-oxo-2-(4-(piperidin-1-yl)phenyl)acetamide]	–
< 50	O=C(N[C@H](CN1CCCC1)[C@H](O)c1cc(F)c2c(c1)OCCO2)C(=O)c1ccc(-c2ccccn2)cc1 [Compound 228, N-((1R,2R)-1-(8-fluoro-2,3-dihydrobenzo[b][1,4]dioxin-6-yl)-1-hydroxy-3-(pyrrolidin-1-yl)propan-2-yl)-2-oxo-2-(4-(pyridin-2-yl)phenyl)acetamide]	–
< 50	O=C(N[C@H](CN1CCCC1)[C@H](O)c1cc(F)c2c(c1)OCCO2)C(=O)c1ccc(-c2ccc(F)cc2)s1 [Compound 230, N-((1R,2R)-1-(8-fluoro-2,3-dihydrobenzo[b][1,4]dioxin-6-yl)-1-hydroxy-3-(pyrrolidin-1-yl)propan-2-yl)-2-(5-(4-fluorophenyl)thiophen-2-yl)-2-oxoacetamide]	–
< 50	O=C(N[C@H](CN1CCCC1)[C@H](O)c1ccc(OC2CC2)c(Cl)c1)C(=O)c1ccc(N2CCCCC2)cc1 [Compound 231, N-((1R,2R)-1-(3-chloro-4-cyclopropoxyphenyl)-1-hydroxy-3-(pyrrolidin-1-yl)propan-2-yl)-2-oxo-2-(4-(piperidin-1-yl)phenyl)acetamide]	–
< 50	Cn1ncc2ccc(-c3ccc(C(F)(F)C(=O)N[C@H](CN4CCCC4)[C@H](O)c4ccc(OC5CC5)c(Cl)c4)cc3)cc21 [Compound 232, N-((1R,2R)-1-(3-chloro-4-cyclopropoxyphenyl)-1-hydroxy-3-(pyrrolidin-1-yl)propan-2-yl)-2,2-difluoro-2-(4-(1-methyl-1H-indazol-6-yl)phenyl)acetamide]	–
< 50	O=C(N[C@H](CN1CCCC1)[C@H](O)c1ccc(OC2CC2)c(Cl)c1)C(=O)c1ccc2sccc2c1 [Compound 233, 2-(benzo[b]thiophen-5-yl)-N-((1R,2R)-1-(3-chloro-4-cyclopropoxyphenyl)-1-hydroxy-3-(pyrrolidin-1-yl)propan-2-yl)-2-oxoacetamide]	–
< 50	O=C(N[C@H](CN1CCCC1)[C@H](O)c1cc(Cl)c2c(c1)OCCO2)C(=O)c1ccc(-c2ccc(F)cc2)cc1 [Compound 234, N-((1R,2R)-1-(8-chloro-2,3-dihydrobenzo[b][1,4]dioxin-6-yl)-1-hydroxy-3-(pyrrolidin-1-yl)propan-2-yl)-2-(4′-fluoro-[1,1′-biphenyl]-4-yl)-2-oxoacetamide]	–
< 50	Cn1ncc2ccc(-c3ccc(C(F)(F)C(=O)N[C@H](CN4CCCC4)[C@H](O)c4ccc5c(c4)OCCO5)cc3)cc21 [Compound 235, N-((1R,2R)-1-(2,3-dihydrobenzo[b][1,4]dioxin-6-yl)-1-hydroxy-3-(pyrrolidin-1-yl)propan-2-yl)-2,2-difluoro-2-(4-(1-methyl-1H-indazol-6-yl)phenyl)acetamide]	–
